Reference: patent publication US11191803B2, “Laminin receptor peptides for therapy” (priority 2017, dated 2021)
“And” between values parts separate entries of the source, which are not always exact repeats. Equal entries are not always repeated.

Columns and labels:
ALS/MND patients [1] = test: Second Phase III trial of Edaravone in a selected mildly symptomatic group; details: 24 weeks; mildly symptomatic subgroup
ALS/MND patients [2] = details: over 24 weeks; mildly symptomatic group; placebo lost 7.5 points; cited from earlier work
ALS/MND patients [3] = details: 24 week treatment; mixed patient population, median ALSFRS-R score 43; cited from earlier work
ALS/MND patients [4] = details: cited from earlier work
[5] = tested on: isolated rat islet cultures; test: Glucagon secretion from collagenase-isolated rat pancreatic islet cultures (Quantikine ELISA); assay type: cell-based, Wistar rats; details: peptide 1 μg/ml; for Glucagon level, Medium plus Peptide A: RPMI 1640, 11 mmol/L glucose, 10% FCS
Procedure: Digestion of pancreatic tissue with collagenase to isolate islets causes similar disruption to the signalling molecules via disorganization of ECM components including laminin, fibronectin and collagen (Lee & Blaufox, J Nucl Med, 1985, 25:72-76) that results in similarly abnormally high glucagon secretion.
Islets from 2 Wistar rats (˜250 g) were isolated according to the method of Li et al. (Nature Protocols, 2009, 4:1649-1652) and suspended in 30 ml RPMI 1640 containing 11 mmol/L glucose and 10% FCS. One ml islet suspension was added to each well of 24-well plates. Peptide A dimer (SEQ ID NO: 3) was dissolved in HBSS at 100 μg/ml and added to wells at a final concentration of 1 μg/ml. After appropriate incubation times, samples were removed for glucagon measurements using Quantikine ELISA Immunoassay (R&D Systems).

ALS/MND patients [6] = test: Clinical data: ALSFRS-R score in ALS/MND patients treated on a named patient basis for 6 months; assay type: in vivo, human
Text: Clinical data were obtained from 19 ALS/MND patients treated on a named patient basis, for a period of 6 months, with the Peptide A dimer (SEQ ID NO: 3).
Average time from diagnosis to treatment was 17.8 months and the decline rate from diagnosis to start of treatment was established for each patient, which averaged at −1.24+/−0.7 decline per month on the ALSFRS-R score. Mean ALSFRS-R score at start of treatment was 32.94+/−8.13, median score 36 (min-max 15-44).

pancreatic α-cell line = details: culture of a pancreatic α-cell line; cited from earlier work

## CC1=NN(c2ccccc2)C(=O)C1 [Edaravone]
ALS/MND patients [1]
  Slowing down of progression vs placebo: 33.3%
ALS/MND patients [2]
  Loss on the ALSFRS-R score: 5 points
ALS/MND patients [3]
  Efficacy in initial Phase III trial: failed to show any efficacy

## Nc1nc2ccc(OC(F)(F)F)cc2s1 [Riluzole]
ALS/MND patients [4]
  Functional advantage: no functional advantage demonstrated

## CVPSVPIQQFPTEDWS CVPSVPIQQFPTEDWS [Peptide A dimer]
[5]; 4 hours
  % Reduction of glucagon secretion vs medium alone: 31.6%
  Glucagon level, Medium plus Peptide A: 425.6 ± 14.8 pg/mL
[5]; 24 hours
  % Reduction of glucagon secretion vs medium alone: 44.8%
  Glucagon level, Medium plus Peptide A: 144.8 ± 8.8 pg/mL
[5]; 72 hours
  % Reduction of glucagon secretion vs medium alone: 55.2%
  Glucagon level, Medium plus Peptide A: 98.3 pg/mL and 98.3 ± 4.7 pg/mL
ALS/MND patients [6]; 2/19 patients
  Participants who stabilized and rose one point each on the ALSFRS-R scale, share of group: 10.5%
ALS/MND patients [6]; 19 ALS/MND patients
  % Slower Progression (actual vs predicted decline): 62% and 62.07%
ALS/MND patients [6]; 19 ALS/MND patients, actual score to time of analysis, baseline 32.94
  ALSFRS-R Score, C Actual: 29.53 +/− 8.26
ALS/MND patients [6]; 19 ALS/MND patients, predicted decline A-B = 8.99
  Actual Decline (A-C) in ALSFRS-R score: A-C = 3.41
ALS/MND patients [6]; subgroup 7 of 19 patients with faster predicted decline
  % Slower Progression (actual vs predicted decline): 76.6%
ALS/MND patients [6]; subgroup 7 of 19 patients with faster predicted decline, baseline 30.43
  ALSFRS-R Score, C Actual: 27.00 +/− 9.90
ALS/MND patients [6]; subgroup 7 of 19 patients, predicted decline A-B = 14.7
  Actual Decline (A-C) in ALSFRS-R score: A-C = 3.43

## methyl-β-cyclodextrin
Pancreatic α-cell line
  Glucagon secretion change: doubling of the glucagon secretion
  Reduction of cholesterol: approximately 60%
